Test results: publication PMC9611727, “Optimization of a Novel Mandelamide-Derived Pyrrolopyrimidine Series of PERK Inhibitors” (Pharmaceutics, 2022)

Experiments:
Assay in all cases: scanMAX kinase panel
Type in all cases: binding
Details in all cases: read-out: % Control; for remaining binding at 1 µM: 1000 nM
FLT3(D835V) = molecular target: T1, FLT3(D835V) (Homo sapiens, UniProt P36888, D835V)
T1 construct: purchased DiscoverX scanMAX
T1 sequence (P36888 27-993 D835V): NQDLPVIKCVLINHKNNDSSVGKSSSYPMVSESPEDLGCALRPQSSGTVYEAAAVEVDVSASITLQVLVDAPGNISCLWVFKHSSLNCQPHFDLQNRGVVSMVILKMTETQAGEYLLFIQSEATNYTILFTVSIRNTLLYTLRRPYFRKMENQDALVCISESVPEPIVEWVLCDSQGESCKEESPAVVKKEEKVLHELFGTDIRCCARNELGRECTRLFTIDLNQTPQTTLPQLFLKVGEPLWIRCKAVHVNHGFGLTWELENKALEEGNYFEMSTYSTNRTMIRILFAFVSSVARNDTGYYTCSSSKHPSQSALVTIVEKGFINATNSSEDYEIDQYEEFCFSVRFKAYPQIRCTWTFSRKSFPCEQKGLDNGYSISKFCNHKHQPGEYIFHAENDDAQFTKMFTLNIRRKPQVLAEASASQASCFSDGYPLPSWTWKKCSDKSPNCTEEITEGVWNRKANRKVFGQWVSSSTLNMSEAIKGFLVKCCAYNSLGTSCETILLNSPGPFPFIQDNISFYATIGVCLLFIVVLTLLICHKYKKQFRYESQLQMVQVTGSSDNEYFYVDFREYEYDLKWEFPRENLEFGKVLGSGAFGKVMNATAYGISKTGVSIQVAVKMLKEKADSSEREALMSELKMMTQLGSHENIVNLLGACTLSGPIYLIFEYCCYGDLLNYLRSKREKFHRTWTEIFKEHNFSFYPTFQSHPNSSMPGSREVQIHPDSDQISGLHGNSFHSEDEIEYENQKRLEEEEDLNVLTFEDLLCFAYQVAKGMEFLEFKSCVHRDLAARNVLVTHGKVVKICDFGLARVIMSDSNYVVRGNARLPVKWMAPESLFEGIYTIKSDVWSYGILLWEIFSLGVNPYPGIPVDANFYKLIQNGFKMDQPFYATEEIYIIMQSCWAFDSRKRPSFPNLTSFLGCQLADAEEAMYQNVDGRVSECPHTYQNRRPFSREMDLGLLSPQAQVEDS
Excerpt: (§1) Supplemental Table S2. scanMAXSM Kinome Assay Results. Complete tabulated data of all 468 kinases from the panel, including
(§2) 403 wild-type and 65 mutant isoforms. […] Cmpd 11 and Cmpd 24

DDR1 = molecular target: T2, DDR1 (Homo sapiens, UniProt Q08345)
T2 construct: purchased DiscoverX scanMAX
Excerpt: as §1, §2

PAK3 = molecular target: T3, PAK3 (Homo sapiens, UniProt O75914)
T3 construct: purchased DiscoverX scanMAX
Excerpt: as §1, §2

LTK = molecular target: T4, LTK (Homo sapiens, UniProt P29376)
T4 construct: purchased DiscoverX scanMAX
Excerpt: as §1, §2

MKNK2 = molecular target: T5, MKNK2 (Homo sapiens, UniProt Q9HBH9)
T5 construct: purchased DiscoverX scanMAX
Excerpt: as §1, §2

GCN2(Kin.Dom.2,S808G) = molecular target: T6, GCN2(Kin.Dom.2,S808G) (Homo sapiens, UniProt Q9P2K8, S808G)
T6 construct: GCN2(Kin.Dom.2,S808G); purchased DiscoverX scanMAX
T6 sequence (Q9P2K8 590-1001 S808G limits assumed): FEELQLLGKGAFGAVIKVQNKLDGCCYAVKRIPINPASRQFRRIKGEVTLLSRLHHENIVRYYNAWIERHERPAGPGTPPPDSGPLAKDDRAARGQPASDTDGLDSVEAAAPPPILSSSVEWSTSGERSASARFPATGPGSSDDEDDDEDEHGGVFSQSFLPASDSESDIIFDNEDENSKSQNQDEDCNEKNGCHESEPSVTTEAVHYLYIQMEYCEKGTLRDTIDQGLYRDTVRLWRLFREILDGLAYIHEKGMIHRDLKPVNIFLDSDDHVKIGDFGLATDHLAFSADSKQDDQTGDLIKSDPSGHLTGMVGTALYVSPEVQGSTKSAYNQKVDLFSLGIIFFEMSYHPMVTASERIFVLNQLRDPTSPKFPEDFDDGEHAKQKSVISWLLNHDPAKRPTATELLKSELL
Excerpt: as §1, §2

LOK = molecular target: T7, LOK (Homo sapiens, UniProt O94804)
T7 construct: purchased DiscoverX scanMAX
Excerpt: as §1, §2

EPHB6 = molecular target: T8, EPHB6 (Homo sapiens, UniProt O15197)
T8 construct: purchased DiscoverX scanMAX
T8 sequence (O15197 32-1021): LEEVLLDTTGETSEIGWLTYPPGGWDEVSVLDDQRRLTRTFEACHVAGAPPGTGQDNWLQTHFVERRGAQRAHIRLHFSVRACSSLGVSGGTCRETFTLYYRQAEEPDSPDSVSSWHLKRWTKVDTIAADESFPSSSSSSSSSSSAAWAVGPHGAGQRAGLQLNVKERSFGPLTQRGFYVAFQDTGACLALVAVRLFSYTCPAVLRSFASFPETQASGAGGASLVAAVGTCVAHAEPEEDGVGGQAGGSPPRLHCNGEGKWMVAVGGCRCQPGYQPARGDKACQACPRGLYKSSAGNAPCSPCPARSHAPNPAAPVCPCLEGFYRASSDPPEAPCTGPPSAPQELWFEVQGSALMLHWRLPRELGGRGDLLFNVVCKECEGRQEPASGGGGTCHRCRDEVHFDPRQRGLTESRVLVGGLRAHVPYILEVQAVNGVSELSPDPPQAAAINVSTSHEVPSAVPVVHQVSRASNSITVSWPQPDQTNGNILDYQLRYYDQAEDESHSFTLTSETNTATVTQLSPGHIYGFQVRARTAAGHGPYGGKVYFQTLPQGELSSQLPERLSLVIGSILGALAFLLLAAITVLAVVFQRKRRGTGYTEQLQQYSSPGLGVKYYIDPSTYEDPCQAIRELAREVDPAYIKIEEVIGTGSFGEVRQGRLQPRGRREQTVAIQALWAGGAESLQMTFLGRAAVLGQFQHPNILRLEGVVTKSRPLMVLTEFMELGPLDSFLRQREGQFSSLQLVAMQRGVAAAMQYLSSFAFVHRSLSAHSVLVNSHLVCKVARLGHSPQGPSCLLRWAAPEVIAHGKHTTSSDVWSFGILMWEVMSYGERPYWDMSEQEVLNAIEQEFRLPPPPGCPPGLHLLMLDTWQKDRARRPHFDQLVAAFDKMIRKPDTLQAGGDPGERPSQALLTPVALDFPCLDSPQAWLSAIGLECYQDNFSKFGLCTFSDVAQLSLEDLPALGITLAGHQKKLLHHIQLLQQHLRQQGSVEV
Excerpt: as §1, §2

T3 sequence (O75914 whole entry): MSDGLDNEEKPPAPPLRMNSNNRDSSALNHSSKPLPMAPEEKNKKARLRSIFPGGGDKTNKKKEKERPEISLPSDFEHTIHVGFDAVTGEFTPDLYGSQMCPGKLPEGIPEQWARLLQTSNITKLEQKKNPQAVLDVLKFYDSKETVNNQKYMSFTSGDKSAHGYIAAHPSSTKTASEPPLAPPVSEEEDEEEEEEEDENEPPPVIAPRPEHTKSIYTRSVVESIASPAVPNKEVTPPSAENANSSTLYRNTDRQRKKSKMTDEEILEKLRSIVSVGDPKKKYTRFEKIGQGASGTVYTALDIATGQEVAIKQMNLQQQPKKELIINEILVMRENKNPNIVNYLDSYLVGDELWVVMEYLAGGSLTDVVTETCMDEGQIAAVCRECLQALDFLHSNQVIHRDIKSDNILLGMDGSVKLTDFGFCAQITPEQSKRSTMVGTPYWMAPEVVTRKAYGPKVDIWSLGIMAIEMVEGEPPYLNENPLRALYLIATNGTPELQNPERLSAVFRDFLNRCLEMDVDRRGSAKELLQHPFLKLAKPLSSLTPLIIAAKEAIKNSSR
T2 sequence (Q08345 19-913): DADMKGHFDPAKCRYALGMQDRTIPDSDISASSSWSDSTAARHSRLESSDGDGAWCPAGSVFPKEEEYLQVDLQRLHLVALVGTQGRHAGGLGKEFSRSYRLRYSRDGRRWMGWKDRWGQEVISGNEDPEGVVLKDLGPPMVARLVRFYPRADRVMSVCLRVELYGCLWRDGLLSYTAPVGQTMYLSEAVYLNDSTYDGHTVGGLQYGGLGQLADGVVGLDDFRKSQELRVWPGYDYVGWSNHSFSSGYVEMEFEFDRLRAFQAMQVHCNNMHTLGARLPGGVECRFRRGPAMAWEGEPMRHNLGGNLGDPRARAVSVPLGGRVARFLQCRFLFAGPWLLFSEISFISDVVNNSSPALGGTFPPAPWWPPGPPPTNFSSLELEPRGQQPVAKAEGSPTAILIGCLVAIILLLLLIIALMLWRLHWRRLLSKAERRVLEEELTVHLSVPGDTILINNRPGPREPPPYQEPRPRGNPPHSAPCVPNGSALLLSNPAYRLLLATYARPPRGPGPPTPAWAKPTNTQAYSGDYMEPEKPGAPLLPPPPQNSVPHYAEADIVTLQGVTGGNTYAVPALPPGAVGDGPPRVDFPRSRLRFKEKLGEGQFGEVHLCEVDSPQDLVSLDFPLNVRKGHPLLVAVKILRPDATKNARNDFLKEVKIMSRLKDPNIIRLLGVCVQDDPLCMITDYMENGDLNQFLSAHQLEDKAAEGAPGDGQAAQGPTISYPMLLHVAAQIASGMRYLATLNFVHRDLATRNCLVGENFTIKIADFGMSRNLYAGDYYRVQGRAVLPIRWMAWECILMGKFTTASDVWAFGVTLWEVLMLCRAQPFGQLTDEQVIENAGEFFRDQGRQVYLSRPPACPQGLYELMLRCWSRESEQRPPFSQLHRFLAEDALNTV
T7 sequence (O94804 whole entry): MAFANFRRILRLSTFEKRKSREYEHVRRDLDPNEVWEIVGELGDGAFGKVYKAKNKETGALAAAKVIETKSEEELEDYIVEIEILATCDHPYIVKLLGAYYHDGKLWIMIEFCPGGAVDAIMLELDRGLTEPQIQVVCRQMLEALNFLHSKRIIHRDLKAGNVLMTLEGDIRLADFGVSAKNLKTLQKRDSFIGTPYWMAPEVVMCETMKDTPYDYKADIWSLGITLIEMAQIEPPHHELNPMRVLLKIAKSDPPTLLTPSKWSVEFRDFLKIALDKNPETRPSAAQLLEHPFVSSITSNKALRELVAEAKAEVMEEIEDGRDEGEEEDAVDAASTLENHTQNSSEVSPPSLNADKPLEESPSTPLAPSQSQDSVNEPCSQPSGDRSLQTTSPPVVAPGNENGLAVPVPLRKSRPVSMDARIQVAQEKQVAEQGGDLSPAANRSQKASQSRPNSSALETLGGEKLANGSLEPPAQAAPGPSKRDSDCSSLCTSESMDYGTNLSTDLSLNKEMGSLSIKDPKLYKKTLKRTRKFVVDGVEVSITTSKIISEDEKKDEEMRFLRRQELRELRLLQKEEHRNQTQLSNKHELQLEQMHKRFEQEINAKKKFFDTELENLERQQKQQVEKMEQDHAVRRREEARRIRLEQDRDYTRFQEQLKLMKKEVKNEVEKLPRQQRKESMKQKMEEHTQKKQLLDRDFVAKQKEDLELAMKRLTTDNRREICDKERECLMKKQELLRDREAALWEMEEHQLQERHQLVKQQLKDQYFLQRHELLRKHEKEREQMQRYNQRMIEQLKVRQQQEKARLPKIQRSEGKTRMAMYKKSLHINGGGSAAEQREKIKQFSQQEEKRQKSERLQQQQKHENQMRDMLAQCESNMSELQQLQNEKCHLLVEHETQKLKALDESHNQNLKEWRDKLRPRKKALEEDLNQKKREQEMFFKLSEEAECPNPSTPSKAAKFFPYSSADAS
T5 sequence (Q9HBH9 whole entry): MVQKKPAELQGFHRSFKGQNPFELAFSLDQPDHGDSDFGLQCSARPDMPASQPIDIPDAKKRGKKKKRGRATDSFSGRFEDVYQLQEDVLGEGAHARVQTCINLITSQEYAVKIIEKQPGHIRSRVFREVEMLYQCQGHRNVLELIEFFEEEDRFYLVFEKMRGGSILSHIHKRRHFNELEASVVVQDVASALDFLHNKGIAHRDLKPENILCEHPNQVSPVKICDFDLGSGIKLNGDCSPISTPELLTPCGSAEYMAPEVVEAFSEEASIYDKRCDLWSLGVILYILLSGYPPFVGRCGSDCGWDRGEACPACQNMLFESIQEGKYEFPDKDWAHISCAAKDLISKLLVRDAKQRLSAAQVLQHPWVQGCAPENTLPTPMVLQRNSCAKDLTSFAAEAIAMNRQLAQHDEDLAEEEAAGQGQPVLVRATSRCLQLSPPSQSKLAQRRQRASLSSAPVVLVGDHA
T4 sequence (P29376 17-864): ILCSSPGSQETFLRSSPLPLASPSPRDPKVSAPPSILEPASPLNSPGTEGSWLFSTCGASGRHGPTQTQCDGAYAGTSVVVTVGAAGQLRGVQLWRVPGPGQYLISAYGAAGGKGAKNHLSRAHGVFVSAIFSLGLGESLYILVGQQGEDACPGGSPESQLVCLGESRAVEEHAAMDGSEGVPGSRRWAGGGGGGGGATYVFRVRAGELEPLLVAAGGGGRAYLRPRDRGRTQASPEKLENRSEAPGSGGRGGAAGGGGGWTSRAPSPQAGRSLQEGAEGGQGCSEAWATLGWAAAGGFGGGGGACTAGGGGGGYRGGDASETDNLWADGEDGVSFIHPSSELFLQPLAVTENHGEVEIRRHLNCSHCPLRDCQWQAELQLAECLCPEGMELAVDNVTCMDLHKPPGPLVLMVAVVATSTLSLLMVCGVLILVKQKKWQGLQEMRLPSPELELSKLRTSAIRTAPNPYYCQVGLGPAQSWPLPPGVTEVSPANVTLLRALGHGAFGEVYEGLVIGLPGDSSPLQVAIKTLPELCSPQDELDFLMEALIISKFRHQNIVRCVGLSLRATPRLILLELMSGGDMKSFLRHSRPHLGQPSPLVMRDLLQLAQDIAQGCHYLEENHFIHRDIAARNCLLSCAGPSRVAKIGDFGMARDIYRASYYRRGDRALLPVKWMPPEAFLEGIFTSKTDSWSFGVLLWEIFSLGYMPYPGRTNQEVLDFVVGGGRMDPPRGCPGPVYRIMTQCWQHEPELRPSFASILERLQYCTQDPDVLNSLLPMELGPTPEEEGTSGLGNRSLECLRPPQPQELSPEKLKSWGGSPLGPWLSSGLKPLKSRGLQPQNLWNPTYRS

SMILES | remaining binding at 1 µM (FLT3(D835V)) | remaining binding at 1 µM (DDR1) | remaining binding at 1 µM (PAK3) | remaining binding at 1 µM (LTK) | remaining binding at 1 µM (MKNK2) | remaining binding at 1 µM (GCN2(Kin.Dom.2,S808G)) | remaining binding at 1 µM (LOK) | remaining binding at 1 µM (EPHB6) | remaining binding at 0.1 µM (FLT3(D835V); 100 nM) | remaining binding at 0.1 µM (DDR1; 100 nM) | remaining binding at 0.1 µM (PAK3; 100 nM) | remaining binding at 0.1 µM (LTK; 100 nM) | remaining binding at 0.1 µM (MKNK2; 100 nM) | remaining binding at 0.1 µM (GCN2(Kin.Dom.2,S808G); 100 nM) | remaining binding at 0.1 µM (LOK; 100 nM) | remaining binding at 0.1 µM (EPHB6; 100 nM)
Cc1cc(NC(=O)[C@H](O)c2cccc(F)c2)ccc1-c1cn(C)c2ncnc(N)c12 [Compound 11, (R)-N-(4-(4-amino-7-methyl-7H-pyrrolo[2,3-d]pyrimidin-5-yl)-3-methylphenyl)-2-(3-fluorophenyl)-2-hydroxy acetamide] | 52% | 72% | 36% | 35% | 1.2% | 84% | 4% | 2.6% |  |  |  |  |  |  |  | 
Cc1nc(N)c2c(-c3ccc(NC(=O)[C@H](O)c4cccc(F)c4)cc3C)cn(C)c2n1 [Compound 24] | 100% | 100% | 100% | 100% | 58% | 100% | 88% | 100% |  |  |  |  |  |  |  | 
Cc1nc(N)c2c(-c3ccc(NC(=O)[C@H](O)c4cccc(C(F)(F)F)c4)cc3C)cn(C)c2n1 [Compound 26] | 8.5% | 29% | 31% | 22% | 3.9% | 94% | 12% | 48% | 100% | 100% | 97% | 98% | 88% | 76% | 94% | 94%
